# Assay results as given in the supplement of paper PMC10307832.
# Legend:
# Experiment in all cases: relative viability (nuclei count vs DMSO), 5 days (fraction); higher = more cells survive
# EPLC-272H = test system: EPLC-272H
# Method in brief: (§1)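 Each reported value is a median over duplicate plates. It expresses relative viability: treated-well nuclei count divided by vehicle-well nuclei count. Lung cancer cell lines in 1536-well plates were dosed by pin tool a day after seeding, alone with one drug or with a fixed anchor-drug dose plus five library-drug doses (not always all listed) in √10 steps, and nuclei were counted after 5 days.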
# NCI-H2405 = test system: NCI-H2405
# Method in brief: as §1
# NCI-H1975 = test system: NCI-H1975
# Method in brief: as §1
# LCLC-97TM1 = test system: LCLC-97TM1
# Method in brief: as §1
# NCI-H520 = test system: NCI-H520
# Method in brief: as §1
# CAL-12T = test system: CAL-12T
# Method in brief: as §1
# NCI-H1563 = test system: NCI-H1563
# Method in brief: as §1
# NCI-H1792 = test system: NCI-H1792
# Method in brief: as §1
# NCI-H838 = test system: NCI-H838
# Method in brief: as §1
# A-427 = test system: A-427
# Method in brief: as §1
# NCI-H1915 = test system: NCI-H1915
# Method in brief: as §1
# LC-2-ad = test system: LC-2-ad
# Method in brief: as §1
# UMC-11 = test system: UMC-11
# Method in brief: as §1
# SW 1573 = test system: SW 1573
# Method in brief: as §1
# HCC-15 = test system: HCC-15
# Method in brief: as §1
# NCI-H2023 = test system: NCI-H2023
# Method in brief: as §1
# HCC-44 = test system: HCC-44
# Method in brief: as §1
# COR-L 105 = test system: COR-L 105
# Method in brief: as §1
# NCI-H2347 = test system: NCI-H2347
# Method in brief: as §1
# NCI-H1734 = test system: NCI-H1734
# Method in brief: as §1
compound,measurement,setting,value
Cc1csc(=NC2CCCCC2)n1/N=C/c1ccc(O)c(O)c1O [MIM1] + C[C@@H](Oc1cc(-c2cnn(C3CCNCC3)c2)cnc1N)c1c(Cl)ccc(F)c1Cl [Crizotinib] (partner 1 µM),relative viability,EPLC-272H; first compound 0.2 µM,0.911
same,relative viability,EPLC-272H; first compound 0.6325 µM,0.925
same,relative viability,EPLC-272H; first compound 2 µM,0.901
same,relative viability,EPLC-272H; first compound 6.325 µM,0.666
same,relative viability,EPLC-272H; first compound 20 µM,0.278
same,relative viability,NCI-H2405; first compound 0.2 µM,0.883
same,relative viability,NCI-H2405; first compound 0.6325 µM,0.864
same,relative viability,NCI-H2405; first compound 2 µM,0.912
same,relative viability,NCI-H2405; first compound 6.325 µM,0.701
same,relative viability,NCI-H2405; first compound 20 µM,0.508
same,relative viability,NCI-H1975; first compound 0.2 µM,0.908
same,relative viability,NCI-H1975; first compound 0.6325 µM,1.1
same,relative viability,NCI-H1975; first compound 2 µM,0.871
same,relative viability,NCI-H1975; first compound 6.325 µM,0.545
same,relative viability,NCI-H1975; first compound 20 µM,0.482
same,relative viability,LCLC-97TM1; first compound 0.2 µM,0.327
same,relative viability,LCLC-97TM1; first compound 0.6325 µM,0.38
same,relative viability,LCLC-97TM1; first compound 2 µM,0.441
same,relative viability,LCLC-97TM1; first compound 6.325 µM,0.214
same,relative viability,LCLC-97TM1; first compound 20 µM,0.12
same,relative viability,NCI-H520; first compound 0.2 µM,0.688
same,relative viability,NCI-H520; first compound 0.6325 µM,0.787
same,relative viability,NCI-H520; first compound 2 µM,0.862
same,relative viability,NCI-H520; first compound 6.325 µM,0.578
same,relative viability,NCI-H520; first compound 20 µM,0.498
same,relative viability,CAL-12T; first compound 0.2 µM,0.596
same,relative viability,CAL-12T; first compound 0.6325 µM,0.676
same,relative viability,CAL-12T; first compound 2 µM,0.515
same,relative viability,CAL-12T; first compound 6.325 µM,0.438
same,relative viability,CAL-12T; first compound 20 µM,0.283
same,relative viability,NCI-H1563; first compound 0.2 µM,1
same,relative viability,NCI-H1563; first compound 0.6325 µM,0.891
same,relative viability,NCI-H1563; first compound 2 µM,0.749
same,relative viability,NCI-H1563; first compound 6.325 µM,0.784
same,relative viability,NCI-H1563; first compound 20 µM,0.577
same,relative viability,NCI-H1792; first compound 0.2 µM,0.935
same,relative viability,NCI-H1792; first compound 0.6325 µM,0.897
same,relative viability,NCI-H1792; first compound 2 µM,1.02
same,relative viability,NCI-H1792; first compound 6.325 µM,0.481
same,relative viability,NCI-H1792; first compound 20 µM,0.902
same,relative viability,NCI-H838; first compound 0.2 µM,0.818
same,relative viability,NCI-H838; first compound 0.6325 µM,0.988
same,relative viability,NCI-H838; first compound 2 µM,0.554
same,relative viability,NCI-H838; first compound 6.325 µM,0.688
same,relative viability,NCI-H838; first compound 20 µM,0.699
same,relative viability,A-427; first compound 0.2 µM,0.881
same,relative viability,A-427; first compound 0.6325 µM,0.731
same,relative viability,A-427; first compound 2 µM,0.862
same,relative viability,A-427; first compound 6.325 µM,0.713
same,relative viability,A-427; first compound 20 µM,0.214
same,relative viability,NCI-H1915; first compound 0.2 µM,0.887
same,relative viability,NCI-H1915; first compound 0.6325 µM,0.875
same,relative viability,NCI-H1915; first compound 2 µM,0.792
same,relative viability,NCI-H1915; first compound 6.325 µM,0.648
same,relative viability,NCI-H1915; first compound 20 µM,0.219
same,relative viability,LC-2-ad; first compound 0.2 µM,0.499
same,relative viability,LC-2-ad; first compound 0.6325 µM,0.385
same,relative viability,LC-2-ad; first compound 2 µM,0.34
same,relative viability,LC-2-ad; first compound 6.325 µM,0.277
same,relative viability,LC-2-ad; first compound 20 µM,0.21
same,relative viability,UMC-11; first compound 0.2 µM,0.544
same,relative viability,UMC-11; first compound 0.6325 µM,0.565
same,relative viability,UMC-11; first compound 2 µM,0.649
same,relative viability,UMC-11; first compound 6.325 µM,0.349
same,relative viability,UMC-11; first compound 20 µM,0.184
same,relative viability,SW 1573; first compound 0.2 µM,0.8
same,relative viability,SW 1573; first compound 0.6325 µM,0.847
same,relative viability,SW 1573; first compound 2 µM,0.875
same,relative viability,SW 1573; first compound 6.325 µM,0.661
same,relative viability,SW 1573; first compound 20 µM,0.451
same,relative viability,HCC-15; first compound 0.2 µM,0.801
same,relative viability,HCC-15; first compound 0.6325 µM,0.808
same,relative viability,HCC-15; first compound 2 µM,0.86
same,relative viability,HCC-15; first compound 6.325 µM,0.406
same,relative viability,HCC-15; first compound 20 µM,0.12
same,relative viability,NCI-H2023; first compound 0.2 µM,0.551
same,relative viability,NCI-H2023; first compound 0.6325 µM,0.598
same,relative viability,NCI-H2023; first compound 2 µM,0.573
same,relative viability,NCI-H2023; first compound 6.325 µM,0.406
same,relative viability,NCI-H2023; first compound 20 µM,0.111
same,relative viability,HCC-44; first compound 0.2 µM,0.766
same,relative viability,HCC-44; first compound 0.6325 µM,0.74
same,relative viability,HCC-44; first compound 2 µM,0.67
same,relative viability,HCC-44; first compound 6.325 µM,0.391
same,relative viability,HCC-44; first compound 20 µM,0.152
same,relative viability,COR-L 105; first compound 0.2 µM,0.893
same,relative viability,COR-L 105; first compound 0.6325 µM,0.811
same,relative viability,COR-L 105; first compound 2 µM,0.612
same,relative viability,COR-L 105; first compound 6.325 µM,0.724
same,relative viability,COR-L 105; first compound 20 µM,0.759
same,relative viability,NCI-H2347; first compound 0.2 µM,0.584
same,relative viability,NCI-H2347; first compound 0.6325 µM,0.548
same,relative viability,NCI-H2347; first compound 2 µM,0.677
same,relative viability,NCI-H2347; first compound 6.325 µM,0.577
same,relative viability,NCI-H2347; first compound 20 µM,0.4
same,relative viability,NCI-H1734; first compound 0.2 µM,0.657
same,relative viability,NCI-H1734; first compound 0.6325 µM,0.677
same,relative viability,NCI-H1734; first compound 2 µM,0.596
same,relative viability,NCI-H1734; first compound 6.325 µM,0.379
same,relative viability,NCI-H1734; first compound 20 µM,0.242
